According to ChEMBL document CHEMBL3414466, “Synthesis and anticancer activity of N-substituted 2-arylquinazolinones bearing trans-stilbene scaffold” (Eur J Med Chem, 2015):
Calls of active or inactive are those of the source. The rule behind the calls is not given here.

What was measured:
MCF7 [1] = test: Cytotoxicity against human MCF7 cells by MTT assay; assay type: functional, cell-based
MDA-MB-231 [2] = test: Cytotoxicity against human MDA-MB-231 cells by MTT assay; assay type: functional, cell-based
T47D [3] = test: Cytotoxicity against human T47D cells by MTT assay; assay type: functional, cell-based
MDA-MB-231 [4] = test: Induction of apoptosis in human MDA-MB-231 cells assessed as early apoptotic cells at IC50 after 12 hrs by annexin V-FITC/propidium iodide staining-based flow cytometric analysis (reference value: 3.82%); assay type: functional
MDA-MB-231 [5] = test: Induction of apoptosis in human MDA-MB-231 cells assessed as late apoptotic cells at IC50 after 12 hrs by annexin V-FITC/propidium iodide staining-based flow cytometric analysis (reference value: 0.01%); assay type: functional
MDA-MB-231 [6] = test: Induction of apoptosis in human MDA-MB-231 cells assessed as necrotic cells at IC50 after 12 hrs by annexin V-FITC/propidium iodide staining-based flow cytometric analysis (reference value: 0.97%); assay type: functional
MDA-MB-231 [7] = test: Induction of apoptosis in human MDA-MB-231 cells assessed as viable cells at IC50 after 12 hrs by annexin V-FITC/propidium iodide staining-based flow cytometric analysis (reference value: 95.2%); assay type: functional
MCF7 [8] = test: Induction of apoptosis in human MCF7 cells assessed as early apoptotic cells at IC50 after 12 hrs by annexin V-FITC/propidium iodide staining-based flow cytometric analysis (reference value: 2.49%); assay type: functional
MCF7 [9] = test: Induction of apoptosis in human MCF7 cells assessed as late apoptotic cells at IC50 after 12 hrs by annexin V-FITC/propidium iodide staining-based flow cytometric analysis relative to control; assay type: functional
MCF7 [10] = test: Induction of apoptosis in human MCF7 cells assessed as necrotic cells at IC50 after 12 hrs by annexin V-FITC/propidium iodide staining-based flow cytometric analysis (reference value: 0.29%); assay type: functional
MCF7 [11] = test: Induction of apoptosis in human MCF7 cells assessed as viable cells at IC50 after 12 hrs by annexin V-FITC/propidium iodide staining-based flow cytometric analysis (reference value: 97.23%); assay type: functional
MCF7 [12] = test: Induction of apoptosis in human MCF7 cells assessed as change in morphology at IC50 after 24 hrs by acridine orange/ethidium bromide staining-based fluorescence microscopic analysis; assay type: functional, cell-based
MDA-MB-231 [13] = test: Induction of apoptosis in human MDA-MB-231 cells assessed as change in morphology at IC50 after 24 hrs by acridine orange/ethidium bromide staining-based fluorescence microscopic analysis; assay type: functional, cell-based
MCF7 [14] = test: Potency index, ratio of etoposide IC50 to compound IC50 for human MCF7 cells; assay type: functional
MDA-MB-231 [15] = test: Potency index, ratio of etoposide IC50 to compound IC50 for human MDA-MB-231 cells; assay type: functional
T47D [16] = test: Potency index, ratio of etoposide IC50 to compound IC50 for human T47D cells; assay type: functional

| SMILES | IC50 (MCF7 [1]) | IC50 (MDA-MB-231 [2]) | IC50 (T47D [3]) | other results |
| --- | --- | --- | --- | --- |
| CC(C)Cn1c(-c2ccccc2/C=C/c2ccccc2)nc2ccccc2c1=O | 23.3 µM | 6.9 µM | 9.3 µM | – |
| C=CCn1c(-c2ccccc2/C=C/c2ccccc2)nc2ccccc2c1=O | 10.3 µM | 4.1 µM | 5.8 µM | – |
| O=c1c2ccccc2nc(-c2ccccc2/C=C/c2ccccc2)n1-c1ccccc1 | 44.9 µM | > 100 µM | > 100 µM | – |
| CCCn1c(-c2ccccc2/C=C/c2ccccc2)nc2ccccc2c1=O | 29.4 µM | > 100 µM | > 100 µM | – |
| CCn1c(-c2ccccc2/C=C/c2ccccc2)nc2ccccc2c1=O | 8.7 µM | 8.4 µM | 10.2 µM | – |
| Cc1ccc(-n2c(-c3ccccc3/C=C/c3ccccc3)nc3ccccc3c2=O)cc1 | > 100 µM | > 100 µM | > 100 µM | – |
| COc1cc([C@@H]2c3cc4c(cc3[C@@H](O[C@@H]3O[C@@H]5CO[C@@H](C)O[C@H]5[C@H](O)[C@H]3O)[C@H]3COC(=O)[C@H]23)OCO4)cc(OC)c1O [ETOPOSIDE] | – | 10.3 µM | 8.9 µM | Activity (MDA-MB-231 [4]): 22.41%; Activity (MDA-MB-231 [5]): 0.8%; Activity (MDA-MB-231 [6]): 0.27%; Activity (MDA-MB-231 [7]): 76.53%; Activity (MCF7 [8]): 36.92%; Activity (MCF7 [9]): 0.08%; Activity (MCF7 [10]): 0.1%; Activity (MCF7 [11]): 62.89% |
| O=c1c2ccccc2nc(-c2ccccc2/C=C/c2ccccc2)n1C1CC1 | 5.3 µM | 5.5 µM | 6.8 µM | Activity (MCF7 [12]): Active; Activity (MDA-MB-231 [13]): Active; Activity (MDA-MB-231 [4]): 22.41%; Activity (MDA-MB-231 [5]): 3.09%; Activity (MDA-MB-231 [6]): 4.37%; Activity (MDA-MB-231 [7]): 70.13%; Activity (MCF7 [8]): 25.88%; Activity (MCF7 [9]): 0.77%; Activity (MCF7 [10]): 0.59%; Activity (MCF7 [11]): 72.75% |
| CC(C)n1c(-c2ccccc2/C=C/c2ccccc2)nc2ccccc2c1=O | 6.7 µM | 8.4 µM | 6.2 µM | – |
| CCCCn1c(-c2ccccc2/C=C/c2ccccc2)nc2ccccc2c1=O | 9.8 µM | 4 µM | 7.9 µM | – |
| Cc1ccc(Cn2c(-c3ccccc3/C=C/c3ccccc3)nc3ccccc3c2=O)cc1 | 24.7 µM | 23.8 µM | 28.2 µM | – |
| O=c1c2ccccc2nc(-c2ccccc2/C=C/c2ccccc2)n1Cc1ccccc1 | > 100 µM | > 100 µM | > 100 µM | – |
| O=c1c2ccccc2nc(-c2ccccc2/C=C/c2ccccc2)n1C1CCCC1 | > 100 µM | > 100 µM | > 100 µM | – |
| CCC(C)n1c(-c2ccccc2/C=C/c2ccccc2)nc2ccccc2c1=O (stereo not drawn) | 3.8 µM | 4.9 µM | 3.6 µM | Ratio IC50 (MCF7 [14]): 2; Ratio IC50 (MDA-MB-231 [15]): 2; Ratio IC50 (T47D [16]): 2; Activity (MCF7 [12]): Active; Activity (MDA-MB-231 [13]): Active; Activity (MDA-MB-231 [4]): 16.55%; Activity (MDA-MB-231 [5]): 2.27%; Activity (MDA-MB-231 [6]): 0.97%; Activity (MDA-MB-231 [7]): 80.2%; Activity (MCF7 [8]): 26.45%; Activity (MCF7 [9]): 1.95%; Activity (MCF7 [10]): 2.14%; Activity (MCF7 [11]): 69.46% |
| COc1ccc(Cn2c(-c3ccccc3/C=C/c3ccccc3)nc3ccccc3c2=O)cc1 | > 100 µM | > 100 µM | > 100 µM | – |
| COc1ccc(-n2c(-c3ccccc3/C=C/c3ccccc3)nc3ccccc3c2=O)cc1 | > 100 µM | > 100 µM | > 100 µM | – |
